Results published in PubChem BioAssay (NCI).
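Tested at 5 concentrations; 48 h exposure; 96-well plates; endpoints linearly interpolated, else capped at highest concentration. TGI denotes the concentration required for complete inhibition of growth.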

What was measured:
Experiment in all cases: growth of human tumour cells (NCI), 48 h
786-0 renal = tested on: 786-0 renal
A498 renal = tested on: A498 renal
A549 NSCLC = tested on: A549 NSCLC
ACHN renal = tested on: ACHN renal
BT-549 breast = tested on: BT-549 breast
CAKI-1 renal = tested on: CAKI-1 renal
CCRF-CEM leukemia = tested on: CCRF-CEM leukemia
COLO 205 colon = tested on: COLO 205 colon
DU-145 prostate = tested on: DU-145 prostate
EKVX NSCLC = tested on: EKVX NSCLC
HCC-2998 colon = tested on: HCC-2998 colon
HCT-116 colon = tested on: HCT-116 colon
HCT-15 colon = tested on: HCT-15 colon
HL-60(TB) leukemia = tested on: HL-60(TB) leukemia
HOP-62 NSCLC = tested on: HOP-62 NSCLC
HOP-92 NSCLC = tested on: HOP-92 NSCLC
HS 578T breast = tested on: HS 578T breast
HT29 colon = tested on: HT29 colon
IGROV1 ovarian = tested on: IGROV1 ovarian
K-562 leukemia = tested on: K-562 leukemia
KM12 colon = tested on: KM12 colon
LOX IMVI melanoma = tested on: LOX IMVI melanoma
M14 melanoma = tested on: M14 melanoma
MALME-3M melanoma = tested on: MALME-3M melanoma
MCF7 breast = tested on: MCF7 breast
MDA-MB-231 breast = tested on: MDA-MB-231 breast
MDA-MB-435 = tested on: MDA-MB-435
MDA-N = tested on: MDA-N
MOLT-4 leukemia = tested on: MOLT-4 leukemia
NCI-H226 lung = tested on: NCI-H226 lung
NCI-H23 lung = tested on: NCI-H23 lung
NCI-H460 lung = tested on: NCI-H460 lung
NCI-H522 lung = tested on: NCI-H522 lung
NCI/ADR-RES ovarian = tested on: NCI/ADR-RES ovarian
OVCAR-3 ovarian = tested on: OVCAR-3 ovarian
OVCAR-4 ovarian = tested on: OVCAR-4 ovarian
OVCAR-5 ovarian = tested on: OVCAR-5 ovarian
OVCAR-8 ovarian = tested on: OVCAR-8 ovarian
PC-3 prostate = tested on: PC-3 prostate
RPMI-8226 leukemia = tested on: RPMI-8226 leukemia
RXF 393 renal = tested on: RXF 393 renal
SF-268 CNS = tested on: SF-268 CNS
SF-295 CNS = tested on: SF-295 CNS
SF-539 CNS = tested on: SF-539 CNS
SK-MEL-2 melanoma = tested on: SK-MEL-2 melanoma
SK-MEL-28 melanoma = tested on: SK-MEL-28 melanoma
SK-MEL-5 melanoma = tested on: SK-MEL-5 melanoma
SK-OV-3 ovarian = tested on: SK-OV-3 ovarian
SN12C renal = tested on: SN12C renal
SNB-19 CNS = tested on: SNB-19 CNS
SNB-75 CNS = tested on: SNB-75 CNS
SR leukemia = tested on: SR leukemia
SW-620 colon = tested on: SW-620 colon
T-47D breast = tested on: T-47D breast
TK-10 renal = tested on: TK-10 renal
U251 CNS = tested on: U251 CNS
UACC-257 melanoma = tested on: UACC-257 melanoma
UACC-62 melanoma = tested on: UACC-62 melanoma
UO-31 renal = tested on: UO-31 renal
DLD-1 colon = tested on: DLD-1 colon
DMS 114 small cell lung = tested on: DMS 114 small cell lung
KM20L2 colon = tested on: KM20L2 colon
M19-MEL melanoma = tested on: M19-MEL melanoma
SNB-78 CNS = tested on: SNB-78 CNS
XF 498 CNS = tested on: XF 498 CNS

Structure (SMILES): Nc1nc(Cl)c(C=O)c(NCC2(CO)CC(CCc3ccccc3)C2)n1 (stereo not given)
- TGI (786-0 renal): 69.5 µM
- TGI (A498 renal): 42.1 µM
- TGI (A549 NSCLC): 25.5 µM
- TGI (ACHN renal): 25.8 µM
- TGI (BT-549 breast): 27.5 µM
- TGI (CAKI-1 renal): 3.14 µM
- TGI (CCRF-CEM leukemia): 31.8 µM
- TGI (COLO 205 colon): 24.2 µM
- TGI (DU-145 prostate): 30.8 µM
- TGI (EKVX NSCLC): 14.1 µM
- TGI (HCC-2998 colon): 4.94 µM
- TGI (HCT-116 colon): 27.3 µM
- TGI (HCT-15 colon): 13.8 µM
- TGI (HL-60(TB) leukemia): 3.34 µM
- TGI (HOP-62 NSCLC): 28.6 µM
- TGI (HOP-92 NSCLC): 4.46 µM
- TGI (HS 578T breast): 84.6 µM
- TGI (HT29 colon): 27.7 µM
- TGI (IGROV1 ovarian): 3.48 µM
- TGI (K-562 leukemia): 4.57 µM
- TGI (KM12 colon): 28.5 µM
- TGI (LOX IMVI melanoma): 10.8 µM
- TGI (M14 melanoma): 6.25 µM
- TGI (MALME-3M melanoma): 30.2 µM
- TGI (MCF7 breast): 51.8 µM
- TGI (MDA-MB-231 breast): 23.7 µM
- TGI (MDA-MB-435): 17.9 µM
- TGI (MDA-N): 18.1 µM
- TGI (MOLT-4 leukemia): 9.01 µM
- TGI (NCI-H226 lung): 27.7 µM
- TGI (NCI-H23 lung): 5.49 µM
- TGI (NCI-H460 lung): 33.8 µM
- TGI (NCI-H522 lung): 3.56 µM
- TGI (NCI/ADR-RES ovarian): 47.6 µM
- TGI (OVCAR-3 ovarian): 24.4 µM
- TGI (OVCAR-4 ovarian): 4.21 µM
- TGI (OVCAR-5 ovarian): 33.3 µM
- TGI (OVCAR-8 ovarian): 6.03 µM
- TGI (PC-3 prostate): 16.3 µM
- TGI (RPMI-8226 leukemia): 35.8 µM
- TGI (RXF 393 renal): 31.5 µM
- TGI (SF-268 CNS): 36.5 µM
- TGI (SF-295 CNS): 27 µM
- TGI (SF-539 CNS): 17.8 µM
- TGI (SK-MEL-2 melanoma): 19.2 µM
- TGI (SK-MEL-28 melanoma): 12.1 µM
- TGI (SK-MEL-5 melanoma): 20.3 µM
- TGI (SK-OV-3 ovarian): 24.4 µM
- TGI (SN12C renal): 19 µM
- TGI (SNB-19 CNS): 27.9 µM
- TGI (SNB-75 CNS): 37.5 µM
- TGI (SR leukemia): 4.15 µM
- TGI (SW-620 colon): 15.3 µM
- TGI (T-47D breast): 31 µM
- TGI (TK-10 renal): 62.4 µM
- TGI (U251 CNS): 26.6 µM
- TGI (UACC-257 melanoma): 21.3 µM
- TGI (UACC-62 melanoma): 16.2 µM
- TGI (UO-31 renal): 2.91 µM

Structure (SMILES): N#Cc1ccccc1NC(=O)C(=O)C(C(=O)c1ccccc1-c1ccccc1)C1OC(=O)c2ccccc21 (stereo not given)
- TGI (786-0 renal): 33.5 µM
- TGI (A498 renal): 45.2 µM
- TGI (A549 NSCLC): > 100 µM
- TGI (ACHN renal): 89.4 µM
- TGI (CCRF-CEM leukemia): > 100 µM
- TGI (COLO 205 colon): 43.2 µM
- TGI (DLD-1 colon): 32.4 µM
- TGI (DMS 114 small cell lung): 41.6 µM
- TGI (EKVX NSCLC): 36 µM
- TGI (HCC-2998 colon): 29.2 µM
- TGI (HCT-116 colon): 23 µM
- TGI (HL-60(TB) leukemia): 50.2 µM
- TGI (HOP-62 NSCLC): 25.1 µM
- TGI (HOP-92 NSCLC): 38.8 µM
- TGI (HT29 colon): 97.3 µM
- TGI (IGROV1 ovarian): 66.7 µM
- TGI (K-562 leukemia): > 100 µM
- TGI (KM12 colon): 41.3 µM
- TGI (KM20L2 colon): 40.8 µM
- TGI (LOX IMVI melanoma): 32.2 µM
- TGI (M14 melanoma): 30.6 µM
- TGI (M19-MEL melanoma): 35.3 µM
- TGI (MALME-3M melanoma): 26.8 µM
- TGI (MOLT-4 leukemia): 70 µM
- TGI (NCI-H23 lung): 26.1 µM
- TGI (NCI-H460 lung): 40.4 µM
- TGI (NCI-H522 lung): 21 µM
- TGI (OVCAR-3 ovarian): 32.7 µM
- TGI (OVCAR-5 ovarian): 33 µM
- TGI (OVCAR-8 ovarian): > 100 µM
- TGI (RPMI-8226 leukemia): 79.7 µM
- TGI (RXF 393 renal): 25.3 µM
- TGI (SF-268 CNS): 38.8 µM
- TGI (SF-295 CNS): 58.3 µM
- TGI (SF-539 CNS): 22.7 µM
- TGI (SK-MEL-2 melanoma): 32.1 µM
- TGI (SK-MEL-28 melanoma): 40.4 µM
- TGI (SK-MEL-5 melanoma): > 100 µM
- TGI (SK-OV-3 ovarian): > 100 µM
- TGI (SNB-75 CNS): 29.9 µM
- TGI (SNB-78 CNS): 59.9 µM
- TGI (SW-620 colon): 75.5 µM
- TGI (U251 CNS): 25.6 µM
- TGI (UACC-257 melanoma): 53.8 µM
- TGI (UACC-62 melanoma): 33.8 µM
- TGI (XF 498 CNS): 33.6 µM
